Data: the supplement of paper PMC11451515

System: SEM cells
Test: cell viability relative to DMSO control; higher = less cytotoxic
Conditions: 48 h
Method in brief: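 Library compounds in DMSO were pin-dosed into 1536-well plates (5 μl) holding NOMO1 or SEM (500 cells/well) or P12-Ichikawa (1000 cells/well) leukemia cells, across an 11-point threefold series of 47 μM to 0.79 nM. Each cell line had been adapted for at least four passages in each medium. CellTiter-Glo One luminescence was read after 48 h at 37°C. Viability is the per-plate percentage relative to DMSO wells, with cell-free wells as background.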

[1] = HPLM + 10% dialyzed FBS, 0.000781 µM
[2] = HPLM + 10% dialyzed FBS, 0.00234 µM
[3] = HPLM + 10% dialyzed FBS, 0.00702 µM
[4] = HPLM + 10% dialyzed FBS, 0.0211 µM
[5] = HPLM + 10% dialyzed FBS, 0.0632 µM
[6] = HPLM + 10% dialyzed FBS, 0.19 µM
[7] = HPLM + 10% dialyzed FBS, 0.569 µM
[8] = HPLM + 10% dialyzed FBS, 1.71 µM
[9] = HPLM + 10% dialyzed FBS, 5.12 µM
[10] = HPLM + 10% dialyzed FBS, 15.4 µM
[11] = HPLM + 10% dialyzed FBS, 46.1 µM
[12] = RPMI 5 mM glucose + 10% FBS, 0.000781 µM
[13] = RPMI 5 mM glucose + 10% FBS, 0.00234 µM
[14] = RPMI 5 mM glucose + 10% FBS, 0.00702 µM
[15] = RPMI 5 mM glucose + 10% FBS, 0.0211 µM
[16] = RPMI 5 mM glucose + 10% FBS, 0.0632 µM
[17] = RPMI 5 mM glucose + 10% FBS, 0.19 µM
[18] = RPMI 5 mM glucose + 10% FBS, 0.569 µM
[19] = RPMI 5 mM glucose + 10% FBS, 1.71 µM
[20] = RPMI 5 mM glucose + 10% FBS, 5.12 µM
[21] = RPMI 5 mM glucose + 10% FBS, 15.4 µM
[22] = RPMI 5 mM glucose + 10% FBS, 46.1 µM
[23] = RPMI 5 mM glucose + 10% dialyzed FBS, 0.000781 µM
[24] = RPMI 5 mM glucose + 10% dialyzed FBS, 0.00234 µM
[25] = RPMI 5 mM glucose + 10% dialyzed FBS, 0.00702 µM
[26] = RPMI 5 mM glucose + 10% dialyzed FBS, 0.0211 µM
[27] = RPMI 5 mM glucose + 10% dialyzed FBS, 0.0632 µM
[28] = RPMI 5 mM glucose + 10% dialyzed FBS, 0.19 µM
[29] = RPMI 5 mM glucose + 10% dialyzed FBS, 0.569 µM
[30] = RPMI 5 mM glucose + 10% dialyzed FBS, 1.71 µM
[31] = RPMI 5 mM glucose + 10% dialyzed FBS, 5.12 µM
[32] = RPMI 5 mM glucose + 10% dialyzed FBS, 15.4 µM
[33] = RPMI 5 mM glucose + 10% dialyzed FBS, 46.1 µM

Structure (SMILES)	cell viability [1]	cell viability [2]	cell viability [3]	cell viability [4]	cell viability [5]	cell viability [6]	cell viability [7]	cell viability [8]	cell viability [9]	cell viability [10]	cell viability [11]	cell viability [12]	cell viability [13]	cell viability [14]	cell viability [15]	cell viability [16]	cell viability [17]	cell viability [18]	cell viability [19]	cell viability [20]	cell viability [21]	cell viability [22]	cell viability [23]	cell viability [24]	cell viability [25]	cell viability [26]	cell viability [27]	cell viability [28]	cell viability [29]	cell viability [30]	cell viability [31]	cell viability [32]	cell viability [33]
Cc1cnc(Nc2ccc(CN3CCOCC3)cc2)nc1Nc1cccc([S+](=O)([O-])NC(C)(C)C)c1	65%	83.2%	77.8%	72.9%	83.4%	39.3%	58%	23.1%	5.99%	2.23%	1.78%	87.5%	86.9%	102%	87.8%	83.5%	44%	59.3%	19.4%	5.03%	2.53%	2.58%	69.5%	81.9%	82.4%	86%	84.2%	37.7%	20.7%	16.5%	6.18%	2.42%	2.01%
C1CN\2C[C@@H](\N=C2S1)C3=CC=CC=C3	82.1%	95%	104%	88.6%	98.7%	99.5%	100%	100%	97.8%	100%	86.1%	73.7%	86.7%	89.4%	83.1%	90.9%	75.2%	87.6%	89.3%	88%	87.8%	40.4%	88.8%	95.3%	100%	107%	106%	116%	107%	106%	118%	100%	76.9%
COc1cc(Cl)cn2c(-c3cccc(NC4CNC4)n3)cnc12	114%	117%	131%	121%	133%	116%	125%	90.8%	128%	105%	96.8%																						
Nc1ccc([S+](=O)([O-])Nc2ncccn2)cc1	100%	103%	105%	96.8%	109%	117%	99.7%	110%	103%	109%	112%	110%	108%	120%	86.1%	117%	117%	108%	122%	126%	114%	110%	111%	109%	125%	74.4%	122%	136%	133%	129%	145%	134%	124%
Cn1cnc([N+](=O)[O-])c1Sc1ncnc2nc[nH]c12	83.9%	90.7%	99.3%	88%	101%	100%	95.7%	83%	103%	24.4%	20.8%	87.3%	86.8%	93.4%	108%	88.2%	92.1%	100%	43.5%	23.8%	24.9%	15.4%	90.3%	82.8%	84.6%	71.8%	88.9%	89.1%	77%	32.1%	28.7%	20.7%	14.3%
C[C@H]1Oc2cc(cnc2N)-c2c(nn(C)c2C#N)CN(C)C(=O)c2ccc(F)cc21	111%	138%	114%	118%	109%	126%	124%	121%	117%	107%	93.7%	110%	108%	110%	109%	78.1%	85.3%	102%	110%	97.4%	81.5%	60.3%	118%	128%	115%	130%	131%	133%	145%	132%	129%	122%	116%
Nc1ccn([C@H]2CS[C@@H](CO)O2)c(=O)n1	81.2%	108%	109%	122%	137%	126%	123%	129%	123%	101%	147%	101%	116%	108%	135%	157%	138%	141%	130%	144%	153%	144%	104%	136%	117%	134%	144%	138%	139%	135%	138%	110%	135%
CCOC(=O)O[C@]1(C(=O)OCCl)CC[C@H]2[C@@H]3CCC4=CC(=O)C=C[C@]4(C)[C@H]3[C@@H](O)C[C@@]21C	84.2%	92.5%	93.3%	102%	101%	99.3%	95.6%	96%	102%	88.7%	100%	82.9%	85.4%	87.9%	84.6%	92.7%	87.3%	85.1%	109%	107%	96.1%	96.6%	83.5%	87.4%	93.6%	85.7%	85.4%	94.8%	86.1%	89.3%	96.4%	99.2%	92%
